Assay results reported in US20100092526A1, “NANOEMULSION THERAPEUTIC COMPOSITIONS AND METHODS OF USING THE SAME” (NanoBio Corporation, priority 2008, published 2010).
Converted amounts (≈) assume the structure as drawn.

Key:
[1] = system: Burkholderia strains; test: Checkerboard synergy study (FIC/FBC index); format: cell-based; conditions: for Summary of synergy data (overall interaction): Burkholderia, combined with P4075EC & 5 mM EDTA
[2] = system: Stenotrophomonas strains; test: Checkerboard synergy study (FIC/FBC index); format: cell-based; conditions: for Summary of synergy data (overall interaction): Stenotrophomonas, combined with P4075EC & 1 mM EDTA
[3] = system: Acinetobacter strains; test: Checkerboard synergy study (FIC/FBC index); format: cell-based; conditions: for Summary of synergy data (overall interaction): Acinetobacter, combined with P4075EC & 1 mM EDTA
[4] = system: P. aeruginosa, B. cenocepacia, A. baumannii and S. maltophilia; test: MIC/MBC against all strains of Example 8; conditions: for MBC: read-out: MBC90, against all strains
[5] = system: subset (23) of gram-negative isolates; test: Cidality (MBC/MIC ratio) against a subset (23) of gram-negative isolates; format: cell-based, gram-negative bacteria; conditions: 23 isolates
[6] = system: methicillin-resistant Staphylococcus aureus (MRSA); test: Susceptibility (MIC/MBC) of MRSA clinical isolates; format: cell-based; conditions: Staphylococcus aureus; MRSA isolates; read-out: MIC90
[7] = isolate NB21, combined with P4075EC+EDTA
[8] = isolate NB22, combined with P4075EC+EDTA
[9] = isolate NB23, combined with P4075EC+EDTA
[10] = isolate NB24, combined with P4075EC+EDTA
[11] = isolate NB25, combined with P4075EC+EDTA
[12] = isolate NB26, combined with P4075EC+EDTA
[13] = isolate NB27, combined with P4075EC+EDTA
[14] = isolate NB28b, combined with P4075EC+EDTA
[15] = isolate NB29, combined with P4075EC+EDTA
[16] = isolate NB30, combined with P4075EC+EDTA
[17] = share of ten Burkholderia strains with synergy, combined with P4075EC+EDTA
[18] = isolate NB42, combined with P4075EC+EDTA
[19] = isolate NB43, combined with P4075EC+EDTA
[20] = isolate NB44, combined with P4075EC+EDTA
[21] = isolate NB45, combined with P4075EC+EDTA
[22] = isolate Steno 1, combined with P4075EC+EDTA
[23] = isolate Steno 2, combined with P4075EC+EDTA
[24] = isolate Steno 3, combined with P4075EC+EDTA
[25] = isolate Steno 4, combined with P4075EC+EDTA
[26] = isolate Steno 6, combined with P4075EC+EDTA
[27] = isolate Steno 8, combined with P4075EC+EDTA
[28] = share of Stenotrophomonas strains with synergy, combined with P4075EC+EDTA
[29] = isolate NB31, combined with P4075EC+EDTA
[30] = isolate NB32, combined with P4075EC+EDTA
[31] = isolate NB33, combined with P4075EC+EDTA
[32] = isolate NB34, combined with P4075EC+EDTA
[33] = isolate NB35, combined with P4075EC+EDTA
[34] = isolate NB36, combined with P4075EC+EDTA
[35] = isolate NB37, combined with P4075EC+EDTA
[36] = isolate NB38, combined with P4075EC+EDTA
[37] = isolate NB39, combined with P4075EC+EDTA
[38] = isolate NB40, combined with P4075EC+EDTA
[39] = share of 10 Acinetobacter strains with synergy, combined with P4075EC+EDTA

For `NC[C@H]1O[C@H](O[C@H]2[C@H](O)[C@@H](O[C@H]3O[C@H](CO)[C@@H](O)[C@H](N)[C@H]3O)[C@H](N)C[C@@H]2N)[C@H](N)C[C@@H]1O` [Tobramycin], the “Summary of synergy data (overall interaction)” value (shortened to “Summary of synergy data”) [1] was “No Interference”, the “Summary of synergy data” value [2] was “No Interference” and the “Summary of synergy data” value [3] was “No Interference”. For the same compound, the MIC90 [4] was > 32 µg/mL and the MBC [4] was > 32 µg/mL.
For Colistin, the “Summary of synergy data” value [1] was “No Interference”, the FBC [1, 7] was 2.07 and the FIC [1, 7] was 1.45. For the same compound, the “Synergy (FBC)” value [1, 7] was “indifferent”, the “Synergy (FIC)” value [1, 7] was “indifferent” and the FBC [1, 8] was 2.29. For the same compound, the FIC [1, 8] was 1.37, the “Synergy (FBC)” value [1, 8] was “indifferent” and the “Synergy (FIC)” value [1, 8] was “indifferent”. For the same compound, the FBC [1, 9] was 2.00, the FIC [1, 9] was 1.01 and the “Synergy (FBC)” value [1, 9] was “indifferent”. For the same compound, the “Synergy (FIC)” value [1, 9] was “indifferent”, the FBC [1, 10] was 2.00 and the FIC [1, 10] was 1.72. For the same compound, the “Synergy (FBC)” value [1, 10] was “indifferent”, the “Synergy (FIC)” value [1, 10] was “indifferent” and the FBC [1, 11] was 3.00. For the same compound, the FIC [1, 11] was 2.00, the “Synergy (FBC)” value [1, 11] was “indifferent” and the “Synergy (FIC)” value [1, 11] was “indifferent”. The FBC [1, 12] was 0.04, the FIC [1, 12] was 0.56 and the “Synergy (FBC)” value [1, 12] was “yes”. For the same compound, the “Synergy (FIC)” value [1, 12] was “yes”, the FBC [1, 13] was 1.64 and the FIC [1, 13] was 1.93. The “Synergy (FBC)” value [1, 13] was “indifferent”, the “Synergy (FIC)” value [1, 13] was “indifferent” and the FBC [1, 14] was 1.54. For the same compound, the FIC [1, 14] was 0.29, the “Synergy (FBC)” value [1, 14] was “indifferent” and the “Synergy (FIC)” value [1, 14] was “yes”. For the same compound, the FBC [1, 15] was 1.68, the FIC [1, 15] was 1.61 and the “Synergy (FBC)” value [1, 15] was “indifferent”. For the same compound, the “Synergy (FIC)” value [1, 15] was “indifferent”, the FBC [1, 16] was 1.86 and the FIC [1, 16] was 0.02. The “Synergy (FBC)” value [1, 16] was “indifferent”, the “Synergy (FIC)” value [1, 16] was “yes” and the “% FBC Synergy” value [1, 17] was 10%. The “% FIC Synergy” value [1, 17] was 30%, the “Summary of synergy data” value [2] was “Synergy” and the FBC [2, 18] was 1.28. For the same compound, the FIC [2, 18] was 0.08, the “Synergy (FBC)” value [2, 18] was “indifferent” and the “Synergy (FIC)” value [2, 18] was “yes”. The FBC [2, 19] was 0.15, the FIC [2, 19] was 0.08 and the “Synergy (FBC)” value [2, 19] was “yes”. For the same compound, the “Synergy (FIC)” value [2, 19] was “yes”, the FBC [2, 20] was 0.57 and the FIC [2, 20] was 1.01. The “Synergy (FBC)” value [2, 20] was “indifferent”, the “Synergy (FIC)” value [2, 20] was “indifferent” and the FBC [2, 21] was 0.45. For the same compound, the FIC [2, 21] was 0.04, the “Synergy (FBC)” value [2, 21] was “yes” and the “Synergy (FIC)” value [2, 21] was “yes”. The FBC [2, 22] was 0.11, the FIC [2, 22] was 0.08 and the “Synergy (FBC)” value [2, 22] was “yes”. The “Synergy (FIC)” value [2, 22] was “yes”, the FBC [2, 23] was 0.04 and the FIC [2, 23] was 0.09. For the same compound, the “Synergy (FBC)” value [2, 23] was “yes”, the “Synergy (FIC)” value [2, 23] was “yes” and the FBC [2, 24] was 0.14. The FIC [2, 24] was 0.09, the “Synergy (FBC)” value [2, 24] was “yes” and the “Synergy (FIC)” value [2, 24] was “yes”. The FBC [2, 25] was 1.14, the FIC [2, 25] was 0.46 and the “Synergy (FBC)” value [2, 25] was “indifferent”. For the same compound, the “Synergy (FIC)” value [2, 25] was “yes”, the FBC [2, 26] was 0.02 and the FIC [2, 26] was 0.09. The “Synergy (FBC)” value [2, 26] was “yes”, the “Synergy (FIC)” value [2, 26] was “yes” and the FBC [2, 27] was 0.07. The FIC [2, 27] was 0.09, the “Synergy (FBC)” value [2, 27] was “yes” and the “Synergy (FIC)” value [2, 27] was “yes”. The “% FBC Synergy” value [2, 28] was 70%, the “% FIC Synergy” value [2, 28] was 90% and the “Summary of synergy data” value [3] was “No Interference”. For the same compound, the FBC [3, 29] was 2.44, the FIC [3, 29] was 0.83 and the “Synergy (FBC)” value [3, 29] was “indifferent”. The “Synergy (FIC)” value [3, 29] was “indifferent”, the FBC [3, 30] was 1.36 and the FIC [3, 30] was 0.58. The “Synergy (FBC)” value [3, 30] was “indifferent”, the “Synergy (FIC)” value [3, 30] was “indifferent” and the FBC [3, 31] was 2. The FIC [3, 31] was 0.33, the “Synergy (FBC)” value [3, 31] was “indifferent” and the “Synergy (FIC)” value [3, 31] was “yes”. For the same compound, the FBC [3, 32] was 1.10, the FIC [3, 32] was 0.46 and the “Synergy (FBC)” value [3, 32] was “indifferent”. The “Synergy (FIC)” value [3, 32] was “yes”, the FBC [3, 33] was 0.97 and the FIC [3, 33] was 0.72. For the same compound, the “Synergy (FBC)” value [3, 33] was “indifferent”, the “Synergy (FIC)” value [3, 33] was “indifferent” and the FBC [3, 34] was 2. The FIC [3, 34] was 0.56, the “Synergy (FBC)” value [3, 34] was “indifferent” and the “Synergy (FIC)” value [3, 34] was “indifferent”. For the same compound, the FBC [3, 35] was 1.00, the FIC [3, 35] was 0.63 and the “Synergy (FBC)” value [3, 35] was “indifferent”. The “Synergy (FIC)” value [3, 35] was “indifferent”, the FBC [3, 36] was 0.68 and the FIC [3, 36] was 0.77. For the same compound, the “Synergy (FBC)” value [3, 36] was “indifferent”, the “Synergy (FIC)” value [3, 36] was “indifferent” and the FBC [3, 37] was 1.22. The FIC [3, 37] was 0.72, the “Synergy (FBC)” value [3, 37] was “indifferent” and the “Synergy (FIC)” value [3, 37] was “indifferent”. For the same compound, the FBC [3, 38] was 0.91, the FIC [3, 38] was 0.63 and the “Synergy (FBC)” value [3, 38] was “indifferent”. For the same compound, the “Synergy (FIC)” value [3, 38] was “indifferent”, the “% FBC Synergy” value [3, 39] was 0% and the “% FIC Synergy” value [3, 39] was 20%.
For `C[C@H]1COc2c(N3CCN(C)CC3)c(F)cc3c(=O)c(C(=O)O)cn1c23` [Levofloxacin], the “number of strains with MBC/MIC ratio 1” value ([5]; Cidal) was 9 number of strains, the “number of strains with MBC/MIC ratio 2” value ([5]; Cidal) was 8 number of strains and the “number of strains with MBC/MIC ratio 4” value ([5]; Cidal) was 1 number of strains. The “number of strains with MBC/MIC ratio >8x” value ([5]; Static) was 5 number of strains, the MIC90 [6] was 32 µg/mL (≈ 88.6 µM) and the MIC90 [4] was 16 µg/mL (≈ 44.3 µM). The MBC [4] was 16 µg/mL (≈ 44.3 µM).
